The record followed here is patent US20210170035A1, “METHOD OF TREATING CANCER BY TARGETING MYELOID-DERIVED SUPPRESSOR CELLS” (priority 2016, published 2021).

The test system of one test is F4/80+ macrophages. In words: Intracellular staining of arginase on F4/80+ macrophages from 4T1 solid tumor. The test is classed as in vivo, balb/c mice. To be noted: tumor digestion at end of therapeutic study.
For a further test, the system named is 4T1 solid tumor. To be noted: for anti-cancer effect on co-injection of 200 times more competitor (FA-PEG-NH2): competition group, same schedule; for tumor growth, therapeutic study: 10 nmol FA-TLR7 agonist, 10 nmol FA-PI3K inhibitor, 30 nmol FA-tubulysin.
Test [1] relates to F4/80+CD86+ : F4/80+CD206+ macrophages. The test can be described thus: Ratio of M1 to M2 macrophages in 4T1 solid tumor. The test is classed as in vivo, balb/c mice. The note with it: tumor digestion at end of therapeutic study. Here is the method: The ratio of M1 to M2 macrophages (F4/80+CD86+: F4/80+CD206+) was tested in groups of untreated control, FA-TLR7 agonist, FA-PI3K inhibitor, FA-Tubulysin and combination as well as competition groups.
As described in the previous methods part, after tumor digestion at the end of therapeutic study, isolated cells were stained by F4/80 macrophage marker and M1 (CD86), M2 (CD206) markers. Macrophages in a tumor environment have been considered as a mainly M2 macrophage function, which can support tumor growth and suppress the immune response. On the other hand, M1 macrophages have been considered to be able to eliminate tumor cells and stimulate an anti-cancer immune response. Therefore, to study the M1 to M2 macrophage ratio is very important for targeting FR-β positive TAMs/MDSCs. […] Therefore, it could be concluded that by targeting FR+ TAMs/MDSCs in 4T1 solid tumor, the three classes of FA-conjugated […] are able to convert immunosuppression M2 macrophages environment to an anti-cancer M1 macrophages environment, which would contribute to the slow growth of a tumor.

The next test relates to MDSCs (CD11b+Gr1+). In words: MDSCs population (CD11b+Gr1+) in 4T1 solid tumor. The test is classed as in vivo, balb/c mice. To be noted: tumor digestion at end of therapeutic study. The method, then: The MDSCs population (CD11b+Gr1+) was tested in groups of untreated control, FA-TLR7 agonist, FA-PI3K inhibitor, FA-Tubulysin and combination as well as competition groups.
As described in previous methods part, after tumor digestion at the end of therapeutic study, isolated cells were stained by MDSCs markers CD11b+Gr1+, see FIG. 26.

Where [2] appears, read: i.v. 5 days per week for 2 weeks from day 6.

Structures are written as SMILES.

Procedure for F4/80+ macrophages: Intracellular arginase staining: Cell surface markers for TAMs/MDSCs were labeled following procedures mentioned previously. 0.1 μL fixable viability dye eFluor® 660 was added together with antibody cocktails. After washing with PBS, cells were fixed with 4% formaldehyde in 500 μL of PBS for 15 min at 4° C. Cells were spun down to remove fixing solution. Cells were washed two times with 500 μL washing buffer containing 0.1 M glycine and 0.05% sodium azide. After being spun down a final time, cells were added 1 mL permeabilization solution containing 0.1 M glycine, 0.05% sodium azide and 0.1% triton-100. Permeabilization was performed at room temperature for 5 min. Permeabilized cells were spun down at 1500 rpm for 1 min, and the cells were washed three times with 1 mL blocking buffer containing 0.05 M glycine, 0.05% sodium azide and 0.2% gelatin. Cells were then re-suspended in 1 mL blocking buffer at 4° C. overnight to block non-specific intracellular binding. Cells were then spun down at 1500 rpm for 1 min to remove the supernatant and another 100 μL blocking buffer containing 1 μL FITC-arginase was added. Cells were kept in the dark at 4° C. overnight. After being spun down at 1500 rpm for 1 min, cells were washed with 1 mL blocking buffer and were then ready for flow cytometry analysis (BD Accuri C6™ flow cytometer). […]

For `Cc1c(CN2CCN(C(=O)C(C)OC(=O)OCCSSCC(NC(=O)CCC(NC(=O)c3ccc(NCc4cnc5nc(N)[nH]c(=O)c5n4)cc3)C(=O)O)C(=O)O)CC2)sc2c(N3CCOCC3)nc(-c3cnc(N)nc3)nc12` (centres unmarked) [FA-PI3K inhibitor], the “arginase+F4/80+ cell population in live cells vs untreated control” value in the test with F4/80+ macrophages was “dramatically decreased”. The “anti-cancer effect on co-injection of 200 times more competitor (FA-PEG-NH2)” value in the test with 4T1 solid tumor is on record as “can be competed”. Besides, the “tumor growth, therapeutic study” value with 4T1 solid tumor (setting [2]) is on record as “tumor growth was slowed down”. The “M1 to M2 macrophages ratio vs untreated control” value in test [1] was “dramatically increased”. In addition, the “MDSCs population (CD11b+Gr1+) vs untreated control” value in the test with MDSCs (CD11b+Gr1+) is on record as “no difference”.
On to `CCCCc1nc2c(N)nc3ccccc3c2n1CC(C)(C)OC(=O)OCCSSCC(NC(=O)CCC(NC(=O)c1ccc(NCc2cnc3nc(N)[nH]c(=O)c3n2)cc1)C(=O)O)C(=O)O` (centres unmarked) [FA-TLR7 agonist], for which, in the test with F4/80+ macrophages, the “arginase+F4/80+ cell population in live cells vs untreated control” value is reported as “dramatically decreased”. In addition, the “anti-cancer effect on co-injection of 200 times more competitor (FA-PEG-NH2)” value in the test on 4T1 solid tumor is “can be competed”. Moreover, the “tumor growth, therapeutic study” value in the test on 4T1 solid tumor (setting [2]) is “tumor growth was slowed down”. The “tumor growth, dose study” value in the test with 4T1 solid tumor (i.v. 5 days per week for 2 weeks from day 6, especially in groups of 5 nmol, 10 nmol and 20 nmol) was “tumor growth was slowed down”. Moreover, the “M1 to M2 macrophages ratio vs untreated control” value in test [1] is listed as “dramatically increased”. The “MDSCs population (CD11b+Gr1+) vs untreated control” value in the test with MDSCs (CD11b+Gr1+) was “dramatically decreased MDSCs population”.
